The assay concerns the target T1, cGAMP binding domain of wild-type (GRR) human STING, residues 155-341 (Homo sapiens, UniProt Q86WV6, H232R).
T1 construct: His-TEV-hSTING (WT); TEV protease cleavage site (N); made in house; host or cells: E. coli BL21 DE3
Kind of assay: Increase of stability of STING protein against thermal denaturation, Differential Scanning Fluorimetry (DSF). The method, boiled down:
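3 µM His-tagged protein with 100 uM compound, 5×SYPRO Orange, 2% DMSO in 20 mM Tris, 150 mM NaCl, pH7.5; 15–95 °C ramp in 0.5 °C steps (15 s/cycle). Tm from Boltzmann fit of the dye melt curve, duplicates averaged, repeated if SD>1.5 °C; ΔTm = Tm with compound minus Tm of protein alone.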

T1 sequence (Q86WV6 with tags, fused parts or gaps H232R): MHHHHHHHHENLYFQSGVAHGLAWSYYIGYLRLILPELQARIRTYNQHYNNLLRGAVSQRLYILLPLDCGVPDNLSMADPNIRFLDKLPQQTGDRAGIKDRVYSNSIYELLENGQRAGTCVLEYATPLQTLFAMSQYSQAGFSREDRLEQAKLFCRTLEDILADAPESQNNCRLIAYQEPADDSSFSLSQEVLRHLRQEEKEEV

`Cc1nc2nn(C)cc2cc1-n1nc(-c2cccc3nn(C[C@H](OCF)c4ccccc4)cc23)c(C(C)C)c1C` [Example 27, 4-(1-{2,6-dimethyl-2H-pyrazolo[3,4-b]pyridin-5-yl}-5-methyl-4-(propan-2-yl)-1H-pyrazol-3-yl)-2-[(2R)-2-(fluoromethoxy)-2-phenylethyl]-2H-indazole] registered a DSF of 25 K.
For `Cc1nc2nn(CCCCN3CCN(C)CC3)cc2cc1-n1nc(-c2cccc3nn(C[C@H](O)c4ccccc4)cc23)c(C(C)C)c1C` [Example 45, (1R)-2-[4-(5-methyl-1-{6-methyl-2-[4-(4-methylpiperazin-1-yl)butyl]-2H-pyrazolo[3,4-b]pyridin-5-yl}-4-(propan-2-yl)-1H-pyrazol-3-yl)-2H-indazol-2-yl]-1-phenylethan-1-ol] the value was 27 K; for `Cc1nc2nn(CCCN3CCOCC3)cc2cc1-n1nc(-c2cccc3nn(C[C@H](F)c4ccccc4)cc23)c(C(C)C)c1C` [Example 49, 2-[(2R)-2-fluoro-2-phenylethyl]-4-(5-methyl-1-{6-methyl-2-[3-(morpholin-4-yl)propyl]-2H-pyrazolo[3,4-b]pyridin-5-yl}-4-(propan-2-yl)-1H-pyrazol-3-yl)-2H-indazole], 26 K; for `Cc1c(C2CC2)c(-c2cccc3nn(C[C@H](O)c4ccccc4)cc23)nn1-c1cc2cn(C)nc2nc1C1CC1` [Example 29, (1R)-2-[4-(4-cyclopropyl-1-{6-cyclopropyl-2-methyl-2H-pyrazolo[3,4-b]pyridin-5-yl}-5-methyl-1H-pyrazol-3-yl)-2H-indazol-2-yl]-1-phenylethan-1-ol], 29 K.
`Cc1nc2nn(C)cc2cc1-n1nc(-c2cccc3nn(CCc4ccc(OCCN(C)C)cc4)cc23)c(C(C)C)c1C` [Example 65, [2-(4-{2-[4-(1-{2,6-dimethyl-2H-pyrazolo[3,4-b]pyridin-5-yl}-5-methyl-4-(propan-2-yl)-1H-pyrazol-3-yl)-2H-indazol-2-yl]ethyl}phenoxy)ethyl]dimethylamine] showed a DSF of 26 K.
For `Cc1nc2nn(Cc3ncnn3C)cc2cc1-n1nc(-c2cccc3nn(C[C@H](O)c4ccccc4)cc23)c(C(C)C)c1C` [Example 62, (1R)-2-[4-(5-methyl-1-{6-methyl-2-[(1-methyl-1H-1,2,4-triazol-5-yl)methyl]-2H-pyrazolo[3,4-b]pyridin-5-yl}-4-(propan-2-yl)-1H-pyrazol-3-yl)-2H-indazol-2-yl]-1-phenylethan-1-ol] the value was 25 K; for `Cc1nc2nn(CCN3CCOCC3)cc2cc1-n1nc(-c2cccc3nn(C[C@H](O)c4ccccc4)cc23)c(C(C)C)c1C` [Example 1, (1R)-2-[4-(5-methyl-1-{6-methyl-2-[2-(morpholin-4-yl)ethyl]-2H-pyrazolo[3,4-b]pyridin-5-yl}-4-(propan-2-yl)-1H-pyrazol-3-yl)-2H-indazol-2-yl]-1-phenylethan-1-ol], 26 K; for `CC(C)n1cc2cc(-c3nc(-c4cccc5nn(C[C@H](O)c6ccccc6)cc45)c(C4CC4)n3C)c(C3CC3)nc2n1` [Example 33, (1R)-2-(4-{5-cyclopropyl-2-[6-cyclopropyl-2-(propan-2-yl)-2H-pyrazolo[3,4-b]pyridin-5-yl]-1-methyl-1H-imidazol-4-yl}-2H-indazol-2-yl)-1-phenylethan-1-ol], 31 K.
The molecule `CO[C@@H](Cn1cc2c(-c3nn(-c4cc5cn(C)nc5nc4C)c(C)c3C(C)C)cccc2n1)c1ccccc1` [Example 52, 4-(1-{2,6-dimethyl-2H-pyrazolo[3,4-b]pyridin-5-yl}-5-methyl-4-(propan-2-yl)-1H-pyrazol-3-yl)-2-[(2R)-2-methoxy-2-phenylethyl]-2H-indazole] showed a DSF of 25 K.
To `Cc1c(C(C)C)c(-c2cccc3nn(C[C@H](O)c4ccccc4)cc23)nn1-c1cc2cn(C)nc2nc1OC(C)C` [Example 23, (1R)-2-(4-{5-methyl-1-[2-methyl-6-(propan-2-yloxy)-2H-pyrazolo[3,4-b]pyridin-5-yl]-4-(propan-2-yl)-1H-pyrazol-3-yl}-2H-indazol-2-yl)-1-phenylethan-1-ol] belongs 25 K; to `CC(C)c1nc2nn(C)cc2cc1-c1nc(-c2cccc3nn(CS(=O)(=O)c4ccccc4)cc23)c(C2CC2)n1C` [Example 96, 2-[(Benzenesulfonyl)methyl]-4-{5-cyclopropyl-1-methyl-2-[2-methyl-6-(propan-2-yl)-2H-pyrazolo[3,4-b]pyridin-5-yl]-1H-imidazol-4-yl}-2H-indazole], 29 K; to `Cc1c(C(C)C)c(-c2cccc3nn(C[C@H](O)c4ccc(OCCN(C)C)cc4)cc23)nn1-c1cc2cn(C)nc2nc1C1CC1` [Example 101], 30 K.
To `Cc1c(C(C)C)c(-c2cccc3nn(C[C@H](O)c4ccccc4)cc23)nn1-c1cc2cn(C)nc2nc1C1CCOC1` (stereo partly drawn) [Example 47, (1R)-2-(4-{5-methyl-1-[2-methyl-6-(oxolan-3-yl)-2H-pyrazolo[3,4-b]pyridin-5-yl]-4-(propan-2-yl)-1H-pyrazol-3-yl}-2H-indazol-2-yl)-1-phenylethan-1-ol] belongs 30 K; to `Cc1c(C(C)C)c(-c2cccc3nn(C[C@H](O)c4ccc(OCCN5CCOCC5)cc4)cc23)nn1-c1cc2cn(C)nc2nc1C1CC1` [Example 15, (1R)-2-[4-(1-{6-cyclopropyl-2-methyl-2H-pyrazolo[3,4-b]pyridin-5-yl}-5-methyl-4-(propan-2-yl)-1H-pyrazol-3-yl)-2H-indazol-2-yl]-1-{4-[2-(morpholin-4-yl)ethoxy]phenyl}ethan-1-ol], 30 K.
For `Cc1c(C2CC2)c(-c2c(F)ccc3nn(C[C@H](O)c4ccccc4)cc23)nn1-c1cc2cn(C)nc2nc1C1CC1` [Example 35, (1R)-2-[4-(4-cyclopropyl-1-{6-cyclopropyl-2-methyl-2H-pyrazolo[3,4-b]pyridin-5-yl}-5-methyl-1H-pyrazol-3-yl)-5-fluoro-2H-indazol-2-yl]-1-phenylethan-1-ol] the value was 29 K.
As to `Cn1cc2cc(-c3nc(-c4cccc5nn(C[C@H](O)c6ccc(OCC7CCOCC7)cc6)cc45)c(C4CC4)n3C)c(C3CC3)nc2n1` [Example 68], the DSF stood at 28 K.
In turn, `Cc1nc2cc(C)c(-n3nc(-c4cccc5nn(C[C@H](O)c6ccccc6)cc45)c(C(C)C)c3C)cc2[nH]1` [Example 105, (1R)-2-{4-[1-(2,5-dimethyl-1H-1,3-benzodiazol-6-yl)-5-methyl-4-(propan-2-yl)-1H-pyrazol-3-yl]-2H-indazol-2-yl}-1-phenylethan-1-ol] yielded a DSF of 24 K.
Turning to `CCCn1cc2cc(-c3nc(-c4cccc5nn(CC(F)(F)c6ccccc6)cc45)c(C4CC4)n3C)c(C3CC3)nc2n1` [Example 48, 4-(5-cyclopropyl-2-{6-cyclopropyl-2-propyl-2H-pyrazolo[3,4-b]pyridin-5-yl}-1-methyl-1H-imidazol-4-yl)-2-(2,2-difluoro-2-phenylethyl)-2H-indazole], the DSF was found to be 31 K.
To `Cc1c(C(C)C)c(-c2cccc3nn(C[C@H](O)c4ccccc4)cc23)nn1-c1cc2cn(C)nc2nc1C1CCC1` [Example 53, (1R)-2-[4-(1-{6-cyclobutyl-2-methyl-2H-pyrazolo[3,4-b]pyridin-5-yl}-5-methyl-4-(propan-2-yl)-1H-pyrazol-3-yl)-2H-indazol-2-yl]-1-phenylethan-1-ol] belongs 30 K; to `Cc1nc2nn(C)cc2cc1-n1nc(-c2cccc3nn(C[C@H](O)c4ccc(F)c(F)c4)cc23)c(C(C)C)c1C` [Example 44, (1R)-1-(3,4-difluorophenyl)-2-[4-(1-{2,6-dimethyl-2H-pyrazolo[3,4-b]pyridin-5-yl}-5-methyl-4-(propan-2-yl)-1H-pyrazol-3-yl)-2H-indazol-2-yl]ethan-1-ol], 26 K.
The molecule `CNC(=O)CO[C@@H](Cn1cc2c(-c3nn(-c4cc5cn(C)nc5nc4C)c(C)c3C(C)C)cccc2n1)c1ccccc1` [Example 36, 2-[(1R)-2-[4-(1-{2,6-dimethyl-2H-pyrazolo[3,4-b]pyridin-5-yl)-5-methyl-4-(propan-2-yl)-1H-pyrazol-3-yl)-2H-indazol-2-yl]-1-phenylethoxy]-N-methylacetamide] gave a DSF of 24 K.
For `CCO[C@@H](Cn1cc2c(-c3nn(-c4cc5cn(C)nc5nc4C)c(C)c3C(C)C)cccc2n1)c1ccccc1` [Example 30, 4-(1-{2,6-dimethyl-2H-pyrazolo[3,4-b]pyridin-5-yl}-5-methyl-4-(propan-2-yl)-1H-pyrazol-3-yl)-2-[(2R)-2-ethoxy-2-phenylethyl]-2H-indazole] the value was 25 K.
For `Cc1nc2nn(C(C)C)cc2cc1-n1nc(-c2cccc3nn(C[C@H](O)c4ccccc4)cc23)c(C(C)C)c1C` [Example 18, (1R)-2-(4-{5-methyl-1-[6-methyl-2-(propan-2-yl)-2H-pyrazolo[3,4-b]pyridin-5-yl]-4-(propan-2-yl)-1H-pyrazol-3-yl}-2H-indazol-2-yl)-1-phenylethan-1-ol] the value was 28 K.
Molecule `Cc1c(C(C)C)c(-c2cccc3nn(C[C@H](O)c4ccccc4)cc23)nn1-c1cc2cn(C)nc2nc1CN1CCOCC1` [Example 26, (1R)-2-[4-(5-methyl-1-{2-methyl-6-[(morpholin-4-yl)methyl]-2H-pyrazolo[3,4-b]pyridin-5-yl}-4-(propan-2-yl)-1H-pyrazol-3-yl)-2H-indazol-2-yl]-1-phenylethan-1-ol] had a DSF of 26 K.
Molecule `Cc1nc2nn(CC3CC3)cc2cc1-n1nc(-c2cccc3nn(C[C@H](O)c4ccccc4)cc23)c(C(C)C)c1C` [Example 56, (1R)-2-(4-{1-[2-(cyclopropylmethyl)-6-methyl-2H-pyrazolo[3,4-b]pyridin-5-yl]-5-methyl-4-(propan-2-yl)-1H-pyrazol-3-yl}-2H-indazol-2-yl)-1-phenylethan-1-ol] returned a DSF of 25 K.

The record behind these values is patent publication US20260265244A1, “HETEROCYCLIC COMPOUNDS AS STING ANTAGONISTS” (Boehringer Ingelheim International GmbH, priority 2022, published 2026).
